From patent US6809111B2, “Prodrugs of COX-2 inhibitors” (Pharmacia Corporation, priority 2001, dated 2004) come the findings set out here.

Molecules are shown by their SMILES.

Data set [1] deals with carrageenan-induced inflammatory response in air pouch. The experiment in a line: Air-pouch model of inflammation (carrageenan). Format: in vivo. As to conditions: male Lewis rats. On the procedure: Male Lewis rats (175-200 g) were used. Air cavities were produced by subcutaneous injection of 20 mL of sterile air into the intrascapular area of the back. An additional 10 mL of air was injected into the cavity every 3 days to keep the space open. Seven days after the initial air injection, 2 mL of a 1% solution of carrageenan (Sigma) dissolved in saline was injected directly into the pouch to produce an inflammatory response. The volume of exudate was measured […]. The differential cell count was determined by Wright-Giemsa staining. PGE2 and 6-keto-PGF1α were determined in the pouch exudates by specific ELISAs (Cayman Chemicals, Ann Arbor, Mich.).

The molecule `Cc1ccc(-c2cc(C(F)(F)F)nn2-c2ccc(S(=O)(=O)N(CCO)CCO)cc2)cc1` [Example 4, N,N-bis(2-hydroxyethyl)-4-[5-(4-methylphenyl)-3-(trifluoromethyl)-1H-pyrazol-1-yl]benzenesulfonamide] showed a melting point of 79.1 °C. Also, the “AIR POUCH TEST % Inhibition @ 20 mg/kg body weight” value in data set [1] was found to be 10%.

The molecule `Cc1ccc(-c2cc(C(F)(F)F)nn2-c2ccc(S(=O)(=O)NCCO)cc2)cc1` [Example 3, N-(2-hydroxyethyl)-4-[5-(4-methylphenyl)-3-(trifluoromethyl)-1H1-pyrazol-1-yl]benzenesulfonamide] returned a melting point of 57.8 °C. In data set [1], the “AIR POUCH TEST % Inhibition @ 20 mg/kg body weight” value came out at 59%.

As a reminder, the melting point is the temperature of the solid-liquid transition.
